According to PMC8517038 (Molecular psychiatry, 2021):
Like-named read-outs stand apart in the source and are kept apart here.

Key:
Sigma-1 = Sigma-1 (Rattus norvegicus, UniProt Q9R0C9); assay: Competitive radioligand binding, [3H]
KOR [1] = target: T1, KOR (Homo sapiens, UniProt P41145); assay: Binding and enzyme target profile screen
locomotor sensitization = assay: Locomotor; assay type: in vivo; conditions: male mice; for locomotor (psychomotor) sensitization over days: 20 mg/kg IP for 3 days
[2] = target: PCP binding site of the NMDAR (Rattus norvegicus, UniProt P35439); assay: Binding and enzyme target profile screen; conditions: 10 μM
drug self-administration = assay: Intravenous self-administration in rats; assay type: in vivo; conditions: for dose response curve of self-administration: 0.125, 0.25, 0.5, 1.0 mg/kg/infusion, FR1; for extinction of drug self-administration: after retraining on FR1; for self-administration during training: male and female rats, 0.5 mg/kg/infusion, FR1 20-s timeout, 16 sessions
KOR [3] = target: T1, KOR; assay: cAMP accumulation BRET; assay type: cell-based
[4] = system: conditioned place preference; conditions: 40 mg/kg IP, cited from earlier work
KOR [5] = target: T1, KOR; assay: β-arrestin recruitment BRET in transfected HEK-293 cells; assay type: cell-based
[6] = system: morphine CPP and opioid withdrawal; conditions: mice; cited from earlier work
MOR [7] = target: T2, MOR (Homo sapiens, UniProt P35372); assay: cAMP accumulation BRET; assay type: cell-based
locomotor activity = assay: Locomotor activity in mice; assay type: in vivo; conditions: for acute locomotor activity: male mice, 5, 10 and 20 mg/kg IP every 30 min
MOR [8] = target: T2, MOR; assay: β-arrestin recruitment BRET in transfected HEK-293 cells; assay type: cell-based
dopamine tone [9] = assay: [18F]-Fallypride PET; assay type: in vivo, rat; conditions: 10 mg/kg IV infusion for 40 min
mu-opioid receptor (MOR) = mu-opioid receptor (MOR) (Homo sapiens, UniProt P35372); assay: Binding and enzyme target profile screen; conditions: 10 μM
[10] = system: conditioned place preference; assay: Conditioned place preference in mice; assay type: in vivo; conditions: male mice, 10 mg/kg IP, 6 days pairing
dopamine tone [11] = conditions: awake monkeys; cited from earlier work
[12] = system: methamphetamine-induced locomotion; conditions: 10 mg/kg/day, twice weekly for 8 weeks; cited from earlier work
[13] = system: NMDARs over opioid receptors; conditions: canonical high affinity NMDAR antagonist; no reference given; cited from earlier work

T2 sequence (P35372 whole entry): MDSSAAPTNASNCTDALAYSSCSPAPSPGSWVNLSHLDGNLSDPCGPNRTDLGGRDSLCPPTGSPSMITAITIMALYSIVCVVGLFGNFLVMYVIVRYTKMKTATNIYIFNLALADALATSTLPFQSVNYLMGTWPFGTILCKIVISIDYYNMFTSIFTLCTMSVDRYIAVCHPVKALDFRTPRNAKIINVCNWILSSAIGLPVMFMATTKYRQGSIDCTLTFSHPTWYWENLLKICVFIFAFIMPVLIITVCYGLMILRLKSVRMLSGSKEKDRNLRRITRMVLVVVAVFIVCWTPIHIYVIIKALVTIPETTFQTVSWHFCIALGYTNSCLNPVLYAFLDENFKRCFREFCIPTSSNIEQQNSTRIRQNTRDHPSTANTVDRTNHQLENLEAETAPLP
T1 sequence (P41145 whole entry): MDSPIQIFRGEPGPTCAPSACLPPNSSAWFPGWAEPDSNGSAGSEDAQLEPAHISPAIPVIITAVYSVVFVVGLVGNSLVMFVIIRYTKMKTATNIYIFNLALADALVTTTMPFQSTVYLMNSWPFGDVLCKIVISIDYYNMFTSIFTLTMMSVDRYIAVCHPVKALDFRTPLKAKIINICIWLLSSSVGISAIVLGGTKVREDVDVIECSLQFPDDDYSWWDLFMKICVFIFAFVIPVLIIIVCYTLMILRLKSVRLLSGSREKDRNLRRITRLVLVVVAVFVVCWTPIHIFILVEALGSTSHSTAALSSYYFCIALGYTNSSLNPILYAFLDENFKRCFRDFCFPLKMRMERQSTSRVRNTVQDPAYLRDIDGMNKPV
Chain of mu-opioid receptor (MOR) (P35372 whole entry): as the sequence (P35372 whole entry) above
Chain of Sigma-1 (Q9R0C9 whole entry): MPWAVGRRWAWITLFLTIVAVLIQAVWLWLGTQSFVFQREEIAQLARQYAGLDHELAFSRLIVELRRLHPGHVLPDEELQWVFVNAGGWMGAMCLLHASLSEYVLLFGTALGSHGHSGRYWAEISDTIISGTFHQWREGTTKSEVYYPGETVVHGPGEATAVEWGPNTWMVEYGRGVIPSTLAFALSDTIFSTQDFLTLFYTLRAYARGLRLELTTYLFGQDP

CN[C@@]1(c2ccccc2Cl)CCCCC1=O [(R)-ketamine]
Ki (Sigma-1; read-out: Ki sigma-1, rat whole brain, [3H](+)pentazocine): 27 ± 3 µM
inhibition of KOR binding (KOR [1]; 10 μM): ~ 13%
locomotor activity after 20 mg/kg IP injection (locomotor sensitization): increased locomotor activity
locomotor (psychomotor) sensitization over days (locomotor sensitization): but not (R)-ketamine induced psychomotor sensitization
cross-sensitization to (S)-ketamine (locomotor sensitization; repeated 20 mg/kg IP): did not cross-sensitize to (S)-ketamine
hit (>50% inhibition) at PCP binding site of the NMDAR [2]: positive hit
dose response curve of self-administration (drug self-administration): did not show this pattern of responding
extinction of drug self-administration (drug self-administration): rapid extinction of drug seeking
self-administration during training (drug self-administration): weaker and less reliable
mode of action at KOR, cAMP assay (KOR [3]): weaker partial agonist
Emax KOR, cAMP assay (KOR [3]; % morphine maximum response): < 50%
EC50 (KOR [3]; read-out: EC50 KOR, cAMP assay, HEK-293 transfected with KOR): > 100 µM
CPP in mice ([4]; ref 68): did not produce CPP
CPP in mice ([4]; ref 71): produced CPP in mice
activation of the β-arrestin pathway, KOR (KOR [5]): Neither (S)- nor (R)-ketamine activated
morphine CPP and naloxone-precipitated opioid withdrawal [6]: decreases morphine CPP and naloxone-precipitated opioid withdrawal
mode of action at MOR, cAMP assay (MOR [7]): weaker partial agonist
Emax MOR, cAMP assay (MOR [7]; % morphine maximum response): 39 ± 3%
EC50 (MOR [7]; read-out: EC50 MOR, cAMP assay, HEK-293 transfected with MOR): 34 ± 14 µM
acute locomotor activity (locomotor activity): increasing it only at the 20 mg/kg dose
activation of the β-arrestin pathway, MOR (MOR [8]): Neither (S)- nor (R)-ketamine activated
global extracellular dopamine levels in the dorsal striatum ([18F]fallypride) (dopamine tone [9]): Neither (S)- nor (R)-ketamine significantly changed
hit (>50% inhibition) at MOR (mu-opioid receptor (MOR)): not for (R)-ketamine
conditioned place preference for drug-paired chamber [10]: not for the (R)-ketamine-paired chamber

CN[C@]1(c2ccccc2Cl)CCCCC1=O [(S)-ketamine]
Ki (Sigma-1): 131 ± 15 µM
inhibition at 10 µM (KOR [1]; read-out: inhibition of KOR binding): ~35%
locomotor activity after 20 mg/kg IP injection (locomotor sensitization): increased locomotor activity
locomotor (psychomotor) sensitization over days (locomotor sensitization): showed locomotor sensitization over days
hit (>50% inhibition) at PCP binding site of the NMDAR [2]: positive hit
dose response curve of self-administration (drug self-administration): characteristic inverted U-shaped dose response curve
extinction of drug self-administration (drug self-administration): rapid extinction of drug seeking
average self-administered intake (drug self-administration; dose response test): ~ 15 mg/kg/h
self-administration during training (drug self-administration): self-administered (S)-ketamine with a significant escalation of drug intake
EC50 (KOR [3]): 16 ± 4 µM
mode of action at KOR, cAMP assay (KOR [3]): full agonist
Emax (KOR [3]; HEK293, read-out: Emax KOR, cAMP assay): 84 ± 5%
[11C]raclopride binding (dopamine tone) (dopamine tone [11]): decreases in [^11C]raclopride binding
methamphetamine-induced locomotion in mice [12]: led to increased methamphetamine-induced locomotion
activation of the β-arrestin pathway, KOR (KOR [5]): Neither (S)- nor (R)-ketamine activated
EC50 (MOR [7]): 9 ± 2 µM
mode of action at MOR, cAMP assay (MOR [7]): partial agonist
Emax (MOR [7]; HEK293, read-out: Emax MOR, cAMP assay): 48 ± 3%
acute locomotor activity (locomotor activity): more potent than (R)-ketamine in increasing locomotor activity
activation of the β-arrestin pathway, MOR (MOR [8]): Neither (S)- nor (R)-ketamine activated
global extracellular dopamine levels in the dorsal striatum ([18F]fallypride) (dopamine tone [9]): Neither (S)- nor (R)-ketamine significantly changed
hit (>50% inhibition) at MOR (mu-opioid receptor (MOR)): identified as a hit for (S)-ketamine
conditioned place preference for drug-paired chamber [10]: significant preference for the (S)-ketamine-paired chamber

C[C@]12N[C@H](Cc3ccccc31)c1ccccc12 [MK-801]
selectivity for NMDAR over opioid receptors [13]: ~ 1000 fold

O=C1CC[C@@]2(O)[C@H]3Cc4ccc(O)c5c4[C@@]2(CCN3CC2CC2)[C@H]1O5 [naltrexone]
effect on (S)-ketamine-induced locomotor activity (locomotor activity; naltrexone 10 mg/kg IP pretreatment, male mice): partially blocked
